Ends that are not written are not given here.
Tests used:
[1] = tested on: FU5AH rat hepatoma cells (SR-B1); test: SR-B1 mediated cholesterol efflux; format: cell-based; conditions: peptide samples run at 30 μg/ml
Excerpt: The methods employed in this study have been described in U.S. Pat. Nos. 7,029,863, 7,060,452, U.S. Patent Application Publication No. 2005/0191715, and in Moya et al., Arteriosclerosis & Thrombosis 1994:14:1056-1065 and Liu et al., J. Biol. Chem., 2003:278(44), 42976-42984. SR-B1 mediated cholesterol efflux is examined in FU5AH rat hepatoma cells and ABCA1 mediated cholesterol efflux is examined in J774 mouse macrophage cells as described in these references.

[2] = tested on: HeLa cells transfected with only a hygromycin-resistant control plasmid (control cells); test: Cholesterol and phospholipid efflux from control HeLa cells (incl. time course); format: cell-based, human; conditions: for cholesterol efflux from control cells, time course: rate compared with ABCA1 cells
Experimental: HeLa cells stably transfected with human ABCA1 cDNA (ABCA1 cells) and HeLa cells transfected with only a hygromycin-resistant control plasmid (control cells) are produced and grown in α-modified Eagle's medium (aMEM) plus 10% fetal calf serum, as described by Remaley et al. (Biochem. Biophys. Res. Commun. 280:818-823, 2001). Cholesterol and phospholipid efflux is performed for 18 hours on noncholesterol-loaded cells radiolabeled with either cholesterol or choline (Remaley et al., Arterioscler. Thromb. Vasc. Biol. 17:1813-1821, 1997). Percentage efflux is calculated after subtracting the radioactive counts in the blank media (aMEM plus 1 mg/ml of BSA), and expressed as the percent of total radioactive counts removed from the cells during the efflux period.
ABCA1 cells are used to assess the ability of apoA-I and synthetic peptides to efflux lipid from cells. […] The peptides of the present invention efflux approximately 2- to 4-fold more cholesterol and phospholipid from ABCA1 cells than from control cells. Both the peptides of the present invention and apoA-I began to show saturation for lipid efflux at approximately the same protein concentration of 10 μg/ml.
Cholesterol efflux from ABCA1 cells to apoA-I is first detectable after 2 hours and increases throughout the 30 hour efflux period. […] Overall, the kinetics for cholesterol efflux to peptides of the present invention from ABCA1 cells is similar to that of apoA-I, except that cholesterol efflux is first detectable after 30 minutes.

[3] = tested on: apoE knockout mice on a chow diet and LDL receptor knockout mice on a western high fat diet; test: Aortic arch atherosclerosis in knockout mice; format: in vivo, mouse; conditions: 2 mg/kg to 50 mg/kg iv or ip, 2 to 3 times per week, approximately 6 weeks
Experimental: The ability of the peptides of the present invention and associated fragments are tested in apoE knockout mice on a chow diet and LDL receptor knockout mice on a western high fat diet to determine the effect of these peptides to reduce atherosclerosis in a mouse model system. One or more of the peptides of the present invention, in a range of concentration of 2 mg/kg to 50 mg/kg, is injected intravenously (iv) or intraperitoneally (ip) 2 to 3 times per week over a period of approximately 6 weeks. Aortic atherosclerosis is quantitated in the aortic arch before administration of the peptides and after the 6 week period of administration. (Wu et al., J. Biol. Chem.; 2004: 279, 22913-22925).

[4] = tested on: atherosclerotic coronary artery; test: Coronary atherosclerosis by IVUS in individuals with acute coronary syndrome; format: in vivo, human; conditions: iv weekly for 5 to 8 weeks, on stable hypolipidemic drug therapy
Excerpt: Individuals with acute coronary syndrome and documented atherosclerosis have a cardiac catherization with intravascular ultrasound (IVUS) to document coronary atherosclerosis of 20 to 50% obstruction in the target artery. Each individual is on stable hypolipidemic drug therapy and receives an acceptable dose of a peptide of the present invention and/or an associated fragment iv weekly for a period of 5 to 8 weeks. A repeat IVUS measurement is made at the end of the treatment period to assess the effect of the peptide infusion on coronary atherosclerosis in the target vessel.

[5] = tested on: CD11b; test: CD11b expression in stimulated monocytes by flow cytometry; format: cell-based; conditions: human monocytes, 1 μmol/L PMA, 20 μg/ml apoA-1 or peptide
Experimental: Monocyte Isolation Peripheral whole blood (PWB) is drawn from healthy consenting individuals into syringes containing sodium citrate (final concentration—19.2 mM). Resting human monocytes are isolated from PWB by density centrifugation with Lymphoprep (Axis Shield). Mononuclear cells (MNCs) are collected and monocytes are further separated to purity using the Dynal negative isolation kit (Invitrogen). Monocytes are resuspended in phosphate buffered saline (PBS) and cell number is determined counting cell suspension on an automated hematology analyzer (Sysmex, KX-21N, USA). Purification of HDL and apoA-1 Human plasma apoA-1 is isolated as previously described and the purity determined using total mass spectrometry. Flow Cytometry 100 μL of monocytes are stimulated with either 1 μmol/L phorbol-myristate-acetate (PMA) or 1 μg/ml lipopolysaccharide (LPS) (Sigma, Australia) in the presence or absence of apoA-1 (20 μg/ml), or 20 μg/ml of the test peptides of the present invention. SEQ ID NOs: 72, 80, 89, 354, 355 and 372 are also tested individually. The cells are incubated with the FITC conjugated antibody to either the active epitope of CD11b (eBiosciences, USA, Clone CBRM1/5) or total CD11b (Serotec, USA, Clone ICRF44) for 15 min at 37° C. Cells are then fixed with 4% paraformaldehyde. Samples are controlled for by using the appropriately matched isotype matched negative control (FITC-anti-mouse IgG) (Serotec, USA, Clone W3/25). CD11b expression is measured by flow cytometry using FACS Calibur (Becton Dickinson). Analysis is conducted using the Cell Quest Pro software. Statistical Analysis Values are presented as the mean ±SD or percentage of control ±SD. FACS results are analyzed for statistical significance using one-way ANOVA followed by Bonferroni post-hoc test. Significance is accepted at P<0.05. […] The combined effects of increasing cholesterol efflux and decreasing inflammation indicate that the peptides of the present invention effectively mimic the function of Apo AI and will decrease atherosclerosis.

Substance | effect on cholesterol efflux from the Fu5AH cells (SRB1 pathway) [1] | removal of cholesterol and phospholipids from control cells relative to Apo A-I [2] | cholesterol efflux from control cells, time course [2] | atherosclerosis in the aortic arch [3] | plaque in the atherosclerotic coronary artery (IVUS) [4] | PMA induced CD11b expression [5]
Ac-Gly Glu Glu Met Arg Asp Arg Ala Arg Ala His Val Asp Ala Leu Arg Thr His Ala Lys Pro Val Leu Leu Glu Ser Phe Lys Val Ser Phe Leu Ser Ala Leu Glu Glu Tyr Thr Lys Lys-NH2 (Ac-GEEMRDRARAHVDALRTHAKPVLLESFKVSFLSALEEYTKK-NH2) [SEQ ID NO:354] | negligible or no effect | comparable to or more than that removed by Apo A-I | promote cholesterol efflux from control cells but at a lower rate | reduce atherosclerosis in the aortic arch | reduce plaque in the atherosclerotic coronary artery | significantly reduce PMA induced CD11b expression
Ac-Leu Glu Ser Ala Lys Val Ser Ala Leu Ser Ala Leu Glu Glu Ala Thr Lys Lys Ala Lys Pro Val Leu Leu Glu Ser Phe Lys Val Ser Phe Leu Ser Ala Leu Glu Glu Tyr Thr Lys Lys-NH2 (Ac-LESAKVSALSALEEATKKAKPVLLESFKVSFLSALEEYTKK-NH2) [SEQ ID NO:372] | negligible or no effect | comparable to or more than that removed by Apo A-I | promote cholesterol efflux from control cells but at a lower rate | reduce atherosclerosis in the aortic arch | reduce plaque in the atherosclerotic coronary artery | significantly reduce PMA induced CD11b expression
Ac-Ser Asp Glu Leu Arg Gln Arg Leu Ala Ala Arg Leu Glu Ala Leu Lys Glu Asn Ala Lys Pro Val Leu Leu Glu Ser Phe Lys Val Ser Phe Leu Ser Ala Leu Glu Glu Tyr Thr Lys Lys-NH2 (Ac-SDELRQRLAARLEALKENAKPVLLESFKVSFLSALEEYTKK-NH2) [SEQ ID NO:355] | negligible or no effect | comparable to or more than that removed by Apo A-I | promote cholesterol efflux from control cells but at a lower rate | reduce atherosclerosis in the aortic arch | reduce plaque in the atherosclerotic coronary artery | significantly reduce PMA induced CD11b expression
GEEMRDRARAHVDALRTHAKPVLLESFKVSFLSALEEYTKK [SEQ ID NO:72] | negligible or no effect | comparable to or more than that removed by Apo A-I | promote cholesterol efflux from control cells but at a lower rate | reduce atherosclerosis in the aortic arch | reduce plaque in the atherosclerotic coronary artery | significantly reduce PMA induced CD11b expression
LESAKVSALSALEEATKKAKPVLLESFKVSFLSALEEYTKK [SEQ ID NO:89] | negligible or no effect | comparable to or more than that removed by Apo A-I | promote cholesterol efflux from control cells but at a lower rate | reduce atherosclerosis in the aortic arch | reduce plaque in the atherosclerotic coronary artery | significantly reduce PMA induced CD11b expression
SDELRQRLAARLEALKENAKPVLLESFKVSFLSALEEYTKK [SEQ ID NO:80] | negligible or no effect | comparable to or more than that removed by Apo A-I | promote cholesterol efflux from control cells but at a lower rate | reduce atherosclerosis in the aortic arch | reduce plaque in the atherosclerotic coronary artery | significantly reduce PMA induced CD11b expression
